Measured values as given in patent US6655379B2, “Aerosolized active agent delivery” (Nektar Therapeutics, priority 1998, dated 2003).

Assays:
[1] = in vivo; cited from earlier work
[2] = human, in vivo

| Substance | efficiency of absorption as compared to subcutaneous delivery [1] | therapeutic effect, comparison of flow rates (dry powder inhaled, flow rates below 17 liters per minute vs above 17 liters per minute) | lung deposition, comparison of flow rates (human, in vivo) | bioavailabilities, comparison of flow rates [2] | times to peak concentration, comparison of flow rates [2] |
| --- | --- | --- | --- | --- | --- |
| semi-synthetic human insulin: semi-synthetic human insulin delivered by nebulizer to six diabetic children (Elliot et al) | 20-25% | – | – | – | – |
| Albuterol sulfate | – | increased therapeutic effect | higher lung deposition | – | – |
| Human calcitonin: Powders containing 26.7% human calcitonin (Ciba-Geigy), spray dried with mannitol and citrate buffer | – | – | – | higher bioavailabilities | lower times to peak concentration |
| Low molecular weight heparin | – | – | – | higher bioavailabilities | lower times to peak concentration |
